Data reported in the supplement of paper PMC12137928.
Counter-ions that a name gives are not always drawn.

Legend:
[1] = test system: HCT116; details: 72 h
Outline: (§1)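 HCT116 cells went into 1536-well plates at 250 per well. CellTiter-Glo luminescence was expressed relative to vehicle (0%) and positive control (-100%) and then pattern-corrected. Both IC50 and maximal efficacy were taken from four-parameter Hill fits.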

[2] = test system: HCT116; assay: efficacy (maximum % inhibition of viability vs DMSO); higher = more cytotoxic; details: 72 h
Outline: as §1

Row | Structure (SMILES) | IC50 cell viability ([1]; ICRF193 0 nM) [µM] | IC50 cell viability ([1]; ICRF193 200 nM) [µM] | efficacy ([2]; ICRF193 0 nM) [%] | efficacy ([2]; ICRF193 200 nM) [%]
1 | CC(=O)Oc1ccc(C2(c3ccc(OC(C)=O)cc3)Oc3ccccc3NC2=O)cc1 [Bisoxatin acetate] | 14.6 | 20.6 | 66.7 | 89
2 | O=C1c2ccccc2C(=O)c2c1ccc(O)c2O [Alizarin] | > 45.8 | 29.1 |  | 47.6
3 | COc1cc2nc(N3CCN(C(=O)C4COc5ccccc5O4)CC3)nc(N)c2cc1OC (configuration not stated) [Doxazosin mesylate] | 29.1 | 18.3 | 106 | 95.6
4 | CCOC(=O)C1=C(C)NC(C)=C(C(=O)OC)C1c1cccc(Cl)c1Cl (configuration not stated) [Felodipine] | 18.3 | 18.3 | 47.4 | 52
5 | C=C1C[C@H]2[C@@H]3C=C(C)C4=CC(=O)CC[C@]4(C)[C@H]3CC[C@]2(C)[C@@]1(OC(C)=O)C(C)=O [Melengestrol acetate] | > 45.8 | 18.3 |  | 40.9
6 | C/C=C(/C)C(=O)O[C@H]1C(C)=C[C@]23C(=O)[C@@H](C=C(CO)[C@@H](O)[C@]12O)[C@H]1[C@@H](C[C@H]3C)C1(C)C [Ingenol mebutate] | > 45.8 | 23.1 |  | 60.3
7 | CC(C)C[C@H]1C(=O)N2CCC[C@H]2[C@]2(O)O[C@](NC(=O)[C@@H]3C=C4c5cccc6[nH]c(Br)c(c56)C[C@H]4N(C)C3)(C(C)C)C(=O)N12 [BROMOCRIPTINE] | > 45.8 | 18.3 |  | 43.2
8 | CN(C)C/C=C/C(=O)Nc1cc2c(Nc3ccc(F)c(Cl)c3)ncnc2cc1O[C@H]1CCOC1 [Afatinib (BIBW2992)] | 29.1 | 18.3 | 110 | 130
9 | CCO/N=C(\C(=O)N[C@@H]1C(=O)N2C(C(=O)[O-])=C(Sc3nc(-c4cc[n+](C)cc4)cs3)CS[C@H]12)c1nsc(NP(=O)(O)O)n1 [TAK-599] | 25.9 | 29.1 | 57.6 | 76.4
10 | CC(C)(C)CC(=O)OCC(=O)[C@@]1(O)CC[C@H]2[C@@H]3CCC4=CC(=O)C=C[C@]4(C)[C@H]3[C@@H](O)C[C@@]21C [Prednisolone tebutate] | > 45.8 | 29.1 |  | 41.9
11 | C#C[C@]1(O)CC[C@H]2[C@@H]3CCC4=CC(=O)CCC4=C3C=C[C@@]21CC [Gestrinone] | 25.9 | > 45.8 | 56.7 | 
12 | CC(=O)[C@]1(O)Cc2c(O)c3c(c(O)c2[C@@H](O[C@H]2C[C@H](N)[C@H](O)[C@H](C)O2)C1)C(=O)c1ccccc1C3=O [Idarubicin hydrochloride] | 1.64 | 0.58 | 80.9 | 78.8
13 | CN1CCc2cccc3c2[C@H]1Cc1ccc(O)c(O)c1-3 [Apomorphine] | 20.6 | 29.1 | 116 | 107
14 | CCCCCCCCCCCCCCCCCCNC(=O)OC1CCN(C(=O)OC[C@H](COC(=O)N(Cc2cccc[n+]2CC)C(=O)c2ccccc2OC)OC)CC1 [Minopafant] | 11.6 | 16.4 | 111 | 124
15 | CN(C)c1ccc(C(=C2C=CC(=[N+](C)C)C=C2)c2ccc(N(C)C)cc2)cc1 [Methylrosaniline chloride] | 0.326 | 0.164 | 89.5 | 90.4
16 | N#C/C(=C1/SC[C@@H](c2ccc(Cl)cc2Cl)S1)n1ccnc1 [Luliconazole] | > 45.8 | 20.6 |  | 44.9
17 | CN1CCN(CCCN2c3ccccc3Sc3ccccc32)CC1 [Perazine] | 31.6 | 35.5 | 86.5 | 95.2
18 | N=c1ccn2c(n1)O[C@H]1[C@H](O)[C@@H](CO)O[C@H]12 [ANCITABINE HYDROCHLORIDE] | 0.206 | 0.146 | 58.5 | 56.7
19 | C/C(O)=C(\C#N)C(=O)Nc1ccc(C(F)(F)F)cc1 [Teriflunomide] | 13 | 11.6 | 51.8 | 46.2
20 | C=CC(=O)Nc1cc(Nc2nccc(-c3cn(C)c4ccccc34)n2)c(OC)cc1N(C)CCN(C)C [Osimertinib mesylate] | 23.1 | 16.4 | 142 | 101
21 | COc1cc2ncnc(Nc3ccc(F)c(Cl)c3)c2cc1OCCCN1CCOCC1 [Gefitinib] | 20.6 | 29.1 | 86.4 | 98.2
22 | CC(C)(C)c1ccc(C(=O)CCCN2CCC(OC(c3ccccc3)c3ccccc3)CC2)cc1 [Ebastine] | 29.1 | 23.1 | 115 | 112
23 | CN(C)/N=N/c1[nH]cnc1C(N)=O [Dacarbazine] | 7.3 | 16.4 | 66.6 | 91.9
24 | NCCCC[C@H](NC(=O)[C@@H]1CCCN1C(=O)[C@@H]1CSSC[C@H](N)C(=O)N[C@@H](Cc2ccc(O)cc2)C(=O)N[C@@H](Cc2ccccc2)C(=O)N[C@@H](CCC(N)=O)C(=O)N[C@@H](CC(N)=O)C(=O)N1)C(=O)NCC(N)=O [Lypressin] | > 45.8 | 29.1 |  | 51.6

Row | Structure (SMILES) | IC50 cell viability ([1]; ICRF193 0 nM) [µM] | IC50 cell viability ([1]; ICRF193 200 nM) [µM] | efficacy ([2]; ICRF193 0 nM) [%] | efficacy ([2]; ICRF193 200 nM) [%]
25 | CC/N=C(\NCC)NCCCC[C@H](NC(=O)[C@H](CC(C)C)NC(=O)[C@@H](CCCCN/C(=N/CC)NCC)NC(=O)[C@H](Cc1ccc(O)cc1)NC(=O)[C@H](CO)NC(=O)[C@@H](Cc1cccnc1)NC(=O)[C@@H](Cc1ccc(Cl)cc1)NC(=O)[C@@H](Cc1ccc2ccccc2c1)NC(C)=O)C(=O)N1CCC[C@H]1C(=O)N[C@H](C)C(N)=O [Ganirelix] | 4.61 | 5.17 | 80.9 | 82.7
26 | CC[C@H](c1ccc(O)cc1)[C@@H](CC)c1ccc(O)cc1 [Hexestrol] | 16.4 | 20.6 | 69.4 | 64.6
27 | CO[C@H]1C[C@H](O[C@@H]2/C(C)=C/C[C@@H]3C[C@@H](C[C@]4(CC[C@H](C)[C@@H](C5CCCCC5)O4)O3)OC(=O)[C@@H]3C=C(C)/C(=N/O)[C@H]4OC/C(=C\C=C\[C@@H]2C)[C@]43O)O[C@@H](C)[C@@H]1O [SELAMECTIN] | 29.1 | 20.6 | 99.6 | 109
28 | O=C(NC(=O)c1c(F)cccc1F)Nc1cc(Cl)c(OC(F)(F)C(F)C(F)(F)F)cc1Cl (configuration not stated) [Lufenuron] | > 45.8 | 18.3 |  | 41.2
29 | COc1cccc2c1C(=O)c1c(O)c3c(c(O)c1C2=O)C[C@@](O)(C(=O)CO)C[C@@H]3O[C@H]1C[C@H](N)[C@@H](O)[C@H](C)O1 [Epirubicin hydrochloride] | 0.73 | 1.46 | 91.9 | 73.8
30 | Cc1cc(C#N)cc(C)c1Oc1nc(Nc2ccc(C#N)cc2)nc(N)c1Br [Etravirine] | 29.1 | 29.1 | 49 | 54.9
31 | CN1CCC(CN2c3ccccc3Sc3ccccc32)C1 (configuration not stated) [Methdilazine hydrochloride] | > 45.8 | 18.3 |  | 53.5
32 | CC(C)OC(=O)Nc1ccc2[nH]c(-c3cscn3)nc2c1 [Cambendazole] | 13 | 23.1 | 63 | 97.2
33 | C=CC[C@@H]1/C=C(\C)C[C@H](C)C[C@H](OC)[C@H]2O[C@@](O)(C(=O)C(=O)N3CCCC[C@H]3C(=O)O[C@H](/C(C)=C/[C@@H]3CC[C@@H](O)[C@H](OC)C3)[C@H](C)[C@@H](O)CC1=O)[C@H](C)C[C@@H]2OC [FK-506] | 6.51 | 4.61 | 78.2 | 45.5
34 | Cc1ccc(-c2cc(C(F)(F)F)nn2-c2ccc(S(N)(=O)=O)cc2)cc1 [Celecoxib] | 18.3 | 18.3 | 47.1 | 58.1
35 | COC(=O)C1=C(C)NC(C)=C(C(=O)OCCN2CCN(C(c3ccccc3)c3ccccc3)CC2)C1c1cccc([N+](=O)[O-])c1 (configuration not stated) [Manidipine] | 18.3 | 18.3 | 92 | 90.1
36 | O=c1c(-c2ccc(O)cc2)coc2cc(O)cc(O)c12 [Genistein] | > 45.8 | 16.4 |  | 42.9
37 | Oc1cccc2cccnc12 [OXYQUINOLINE HEMISULFATE] | 23.1 | 18.3 | 86.7 | 88.8
38 | COc1cc(C(C)=O)ccc1OCCCN1CCC(c2noc3cc(F)ccc23)CC1 [Iloperidone] | > 45.8 | 23.1 |  | 49.6
39 | C=C(C)[C@@H]1CCC(C)=C[C@H]1c1c(O)cc(CCCCC)cc1O [Cannabidiol] | 20.6 | 23.1 | 52.9 | 49.4
40 | CN(C)c1ccc(C(=C2C=CC(=[N+](C)C)C=C2)c2c(O)c(S(=O)(=O)[O-])cc3cc(S(=O)(=O)O)ccc23)cc1 [Green S] | 18.3 | 10.3 | 93.6 | 79.5
41 | Cc1ccc(NC(=O)c2ccc(CN3CCN(C)CC3)cc2)cc1Nc1nc(-c2cccnc2)cs1 [Masitinib] | 11.6 | 20.6 | 43.6 | 66.8
42 | COc1ccc2c(c1)N(C[C@H](C)CN(C)C)c1ccccc1S2 [Methotrimeprazine maleat salt] | > 45.8 | 23.1 |  | 50.8
43 | CC(C)c1nc(CN(C)C(=O)N[C@H](C(=O)N[C@@H](Cc2ccccc2)C[C@H](O)[C@H](Cc2ccccc2)NC(=O)OCc2cncs2)C(C)C)cs1 [Ritonavir] | > 45.8 | 20.6 |  | 57.4
44 | Cc1cc(O)c2ccccc2c1O [Menadiol] | > 45.8 | 20.6 |  | 41.5
45 | CO[C@H](C(=O)[C@@H](O)[C@@H](C)O)[C@@H]1Cc2cc3cc(O[C@H]4C[C@@H](O[C@@H]5C[C@@H](O)[C@H](O)[C@@H](C)O5)[C@H](O)[C@@H](C)O4)c(C)c(O)c3c(O)c2C(=O)[C@H]1O[C@H]1C[C@@H](O[C@@H]2C[C@@H](O)[C@@H](O[C@@H]3C[C@](C)(O)[C@H](O)[C@@H](C)O3)[C@@H](C)O2)[C@H](O)[C@@H](C)O1 [Plicamycin] | 0.0651 | 0.058 | 82.3 | 83.7
46 | COC(=O)C1=C(C)NC(COC(N)=O)=C(C(=O)OC(C)C)C1c1cccc(Cl)c1Cl (configuration not stated) [Lemildipine] | 23.1 | 25.9 | 76.8 | 76.7
47 | Cc1c(Cl)c(C)[n+]([O-])c(Cl)c1-c1noc(-c2cc(O)c(O)c([N+](=O)[O-])c2)n1 [Opicapone] | > 45.8 | 29.1 |  | 98.7
